These results are taken from ChEMBL document CHEMBL1157064, “Homoisoflavonoids from the fibrous roots of Polygonatum odoratum with glucose uptake-stimulatory activity in 3T3-L1 adipocytes” (J Nat Prod, 2010).

The test system of this experiment is 3T3-L1. Nature of the experiment: Increase in insulin-stimulated [3H]2-deoxy-D-glucose uptake in mouse 3T3L1cells at 1 uM after 3 days by liquid scintillation counting relative to insulin. The class given is functional, cell-based.

Active and inactive are the calls of the source. No cut-off for these calls is given here.

`Cc1c(O)c(C)c2c(c1O)C(=O)[C@H](Cc1ccc(O)cc1)CO2`: the outcome was Active.

For `Cc1c(O)c(C)c2c(c1O)C(=O)/C(=C/c1ccc(O)cc1)CO2`, the outcome was Active.

Turning to `COc1ccc(C[C@@H]2COc3c(OC)c(O)c(C)c(O)c3C2=O)cc1`, the result was Active.

`COc1ccc(C[C@@H]2COc3c(C)c(O)c(C)c(O)c3C2=O)cc1`: the result was Active.

`O=C1/C(=C/c2ccc(O)cc2)COc2cc(O[C@@H]3O[C@H](CO)[C@@H](O)[C@H](O)[C@H]3O)cc(O)c21`: the result was Active.

As for `COc1c(O)c(C)c(O)c2c1OC[C@@H](Cc1ccc(O)cc1)C2=O`, the outcome was Active.

Turning to `COc1ccc(CC2COc3c(OC)c(O)c(C)c(O)c3C2=O)c(O)c1` (racemic), the result was Active.

Regarding `COc1ccc(CC2COc3c(C)c(O)c(C)c(O)c3C2=O)c(O)c1` (racemic), the outcome was Active.

Turning to `COc1ccc([C@@H]2CC(=O)c3c(O)cc(O[C@@H]4O[C@H](CO[C@@H]5O[C@@H](C)[C@H](O)[C@@H](O)[C@H]5O)[C@@H](O)[C@H](O)[C@H]4O)cc3O2)cc1O`, the result was Active.

On to `COc1c(O[C@@H]2O[C@H](CO)[C@@H](O)[C@H](O)[C@H]2O)cc2occ(-c3ccc(O)cc3)c(=O)c2c1O`, for which the result was Active.

As for `COc1ccc(CC2COc3c(C)c(O)c(C)c(O)c3C2=O)cc1O` (racemic), the result was Active.
